In patent US7148380B2, “Bio-energy muscle relaxants” (priority 2000, dated 2006):

Tests used:
[1] = test system: drug-induced asthma in guinea pig; assay: Asthmatic latent period / drug-induced asthma in guinea pig (acetylcholine + histamine inhalation); type: in vivo
Description: Sensitive animals were chosen by aerosolized inhalation of asthma-inducing agents—a mixed solution of 2% acetylcholine with 0.1% histamine for 15 sec., inducing an asthmatic attack with severe difficulty in respiration and finally resulting in the animal body turned down. The time from beginning of the inhalation to animal turned down was recorded as an index named “turned down time” or asthmatic latent period. Those animals with turned down time less than 120 s. were selected for the study next day. […] Then the latent period was recorded for each of the animals.
(1) Screening animals: animal was put in a glass container, a mixed solution of 2% acetylcholine and 0.1% histamine was nebulized with a pressure of 400 mmHg and inhaled by the animals for 15 sec. Following the end of the inhalation, the time between beginning of the inhalation and the animal turned down due to bronchial spasm and dyspnea was recorded as asthmatic latent period. Those animals with a latent period beyond 120 s. were excluded, and those with a latent period less than 120 s were selected for study the next day.
(4) Measuring: Repeat the inhalation at 30 min, 4 h, and 24 h after administration of the drugs respectively. Asthmatic latent period was recorded, 6 minutes were taken as the maximum, and values beyond 6 min were counted as 6 min.
(5) Data analysis: Values were expressed as mean±sd, and paired for “t” and chi-square tests. Significance was considered to be established when p<0.05.

[2] = test system: contraction of bronchial smooth muscle induced by histamine; assay: By-pass-airflow pressure, bronchial smooth muscle contraction induced by histamine; type: in vivo, guinea pig
Description: The animals were divided as saline, BDM, and aminophylline groups. Each animal was anesthetized with pentobarbital (30 mg/kg, I.P.), the trachea was intubated and connected to respirator. Tidal volume and frequency of the respirator were adjusted to 6˜10 ml and 60˜70 breath/min. respectively.
A small hole on chest wall of the animal was made, resulting in pneumothorax to inhibit spontaneous respiration of the animal. A modified device was used for measuring by-pass-airflow pressure of the airway, reflecting alteration in airway resistance, therefore evaluating status of bronchial smooth muscle contraction induced by histamine. The by-pass-airflow pressures were measured before and at 10, 20, 30, 40, 50, and 60 min after administration of histamine (5˜10 μg, I.P.) as control values. […] Changes in by-pass-airflow pressure caused by histamine before and after saline, BDM, or aminophylline were compared.
A percentage of changes in the airflow pressures before and after administration of the histamine at different time points, defined as the change rate, was calculated according to formula 1 below: Change rate (%)=(PA−PB)/PB×100% (1)
where PA is the airflow pressure after histamine, PB is the pressure before histamine. Values were expressed as mean±SD, paired or group “t” test was used upon the requirement for the statistical analysis. The results were considered significant when p<0.05.

[3] = 10 ml/kg I.P. (BDM 0.2M, aminophylline 1.25%), mean±sd
[4] = after drug 10 ml/kg I.P., 10 min after histamine
[5] = after drug 10 ml/kg I.P., 20 min after histamine
[6] = after drug 10 ml/kg I.P., 30 min after histamine
[7] = after drug 10 ml/kg I.P., 40 min after histamine
[8] = after drug 10 ml/kg I.P., 50 min after histamine
[9] = after drug 10 ml/kg I.P., 60 min after histamine
[10] = before drug administration, 10 min after histamine
[11] = before drug administration, 20 min after histamine
[12] = before drug administration, 30 min after histamine
[13] = before drug administration, 40 min after histamine
[14] = before drug administration, 50 min after histamine
[15] = before drug administration, 60 min after histamine

Cn1c(=O)c2[nH]cnc2n(C)c1=O [Aminophylline, aminophylline, reference compound]
Asthamatic Latent Period, 30 minutes after administration ([1]; 10 ml/kg I.P. (BDM 0.2M, aminophylline 1.25%), maximum 6 min, mean±sd): 298.2 ± 138.2 s | Asthamatic Latent Period, 4 hours after administration [1, 3]: 216.6 ± 112.5 s | Asthamatic Latent Period, 24 hours after administration [1, 3]: 96 ± 26.9 s | Incidence of asthmatic spasm ([1]; 30 min after administration, down from 100%, not significant): 40% | Asthamatic Latent Period, before administration ([1]; baseline before drug, 10 ml/kg I.P. (BDM 0.2M, aminophylline 1.25%), mean±sd): 70.6 ± 27.7 s | Effect on the latent period ([1]; thirty minutes and 4 h after administration, p<0.05): significantly extended | by-pass-airflow pressure, A, B. Hist ([2]; after drug 10 ml/kg I.P. (BDM 0.2M, aminophylline 1.25%), before histamine): 4.24 ± 1.18 Kpa | by-pass-airflow pressure, A, Hist 10 min. [2, 4]: 4.36 ± 1.10 Kpa | changing rate of by-pass-airflow pressure, A, Hist 10 min. [2, 4]: −7.68% | by-pass-airflow pressure, A, Hist 20 min. [2, 5]: 4.18 ± 0.86 Kpa | changing rate of by-pass-airflow pressure, A, Hist 20 min. [2, 5]: −10.62% | by-pass-airflow pressure, A, Hist 30 min. [2, 6]: 4.20 ± 0.92 Kpa | changing rate of by-pass-airflow pressure, A, Hist 30 min. [2, 6]: −10.40% | by-pass-airflow pressure, A, Hist 40 min. [2, 7]: 4.15 ± 0.88 Kpa | changing rate of by-pass-airflow pressure, A, Hist 40 min. [2, 7]: −11.38% | by-pass-airflow pressure, A, Hist 50 min. [2, 8]: 4.10 ± 0.92 Kpa | changing rate of by-pass-airflow pressure, A, Hist 50 min. [2, 8]: −12.73% | by-pass-airflow pressure, A, Hist 60 min. [2, 9]: 4.02 ± 0.92 Kpa | changing rate of by-pass-airflow pressure, A, Hist 60 min. [2, 9]: −14.25% | histamine-induced increase in the airflow pressure ([2]; at 10, 20, 30, 40, 50, and 60 min after administration, p<0.01 or p<0.05): significantly reduce | by-pass-airflow pressure, B, Hist 10 min. [2, 10]: 4.51 ± 0.65 Kpa | changing rate of by-pass-airflow pressure, B, Hist 10 min. [2, 10]: 8.37% | by-pass-airflow pressure, B, Hist 20 min. [2, 11]: 4.34 ± 0.73 Kpa | changing rate of by-pass-airflow pressure, B, Hist 20 min. [2, 11]: 3.93% | by-pass-airflow pressure, B, Hist 30 min. [2, 12]: 4.40 ± 0.79 Kpa | changing rate of by-pass-airflow pressure, B, Hist 30 min. [2, 12]: 5.31% | by-pass-airflow pressure, B, Hist 40 min. [2, 13]: 4.42 ± 0.80 Kpa | changing rate of by-pass-airflow pressure, B, Hist 40 min. [2, 13]: 5.80% | by-pass-airflow pressure, B, Hist 50 min. [2, 14]: 4.42 ± 0.86 Kpa | changing rate of by-pass-airflow pressure, B, Hist 50 min. [2, 14]: 5.63% | by-pass-airflow pressure, B, Hist 60 min. [2, 15]: 4.46 ± 0.87 Kpa | changing rate of by-pass-airflow pressure, B, Hist 60 min. [2, 15]: 6.54% | by-pass-airflow pressure, B, B. Hist ([2]; before drug administration, before histamine): 4.18 ± 0.72 Kpa | changing rate of by-pass-airflow pressure, D, Hist 10 min. ([2]; difference A minus B, 10 min after histamine): −16.05% | changing rate of by-pass-airflow pressure, D, Hist 20 min. ([2]; difference A minus B, 20 min after histamine): −14.55% | changing rate of by-pass-airflow pressure, D, Hist 30 min. ([2]; difference A minus B, 30 min after histamine): −15.71% | changing rate of by-pass-airflow pressure, D, Hist 40 min. ([2]; difference A minus B, 40 min after histamine): −17.19% | changing rate of by-pass-airflow pressure, D, Hist 50 min. ([2]; difference A minus B, 50 min after histamine): −18.36% | changing rate of by-pass-airflow pressure, D, Hist 60 min. ([2]; difference A minus B, 60 min after histamine): −20.79%
